Source: ChEMBL document CHEMBL1149552, “Praziquantel derivatives I: Modification of the aromatic ring” (2007)
Converted amounts (≈) assume the structure as drawn.

Assays:
Type in all cases: functional
Schistosoma mansoni [1] = test: Antischistosomal activity against Schistosoma mansoni assessed as 100% killing of schistosomes
Schistosoma mansoni [2] = test: Antischistosomal activity against Schistosoma mansoni assessed as 100% killing of shcistomes relative to Praziquantel
Schistosoma mansoni [3] = test: Antischistosomal activity against Schistosoma mansoni assessed as complete spastic paralysis
Schistosoma mansoni [4] = test: Antischistosomal activity against Schistosoma mansoni assessed as shcistomes paralysis relative to Praziquantel

Row | Compound | MLC (Schistosoma mansoni [1]) | Activity (Schistosoma mansoni [2]) | Activity (Schistosoma mansoni [3]) | Activity (Schistosoma mansoni [4])
1 | Nc1ccc(C(=O)N2CC(=O)N3CCc4ccccc4C3C2)cc1 (stereo unspecified) | 18 µM (≈ 5.78 µg/mL) | 16.6% | 7 µM | 14.3%
2 | Nc1ccc2c(c1)C1CN(C(=O)C3CCCCC3)CC(=O)N1CC2 (stereo unspecified) | 28 µM (≈ 9.17 µg/mL) | 10.7% | 10 µM | 10%
3 | CC(=O)Nc1ccc2c(c1)C1CN(C(=O)C3CCCCC3)CC(=O)N1CC2 (stereo unspecified) | >300 µM | <1% | >300 µM | <0.3%
4 | O=C(C1CCCCC1)N1CC(=O)N2CCc3ccccc3C2C1 (stereo unspecified) [PRAZIQUANTEL] | 3 µM (≈ 0.937 µg/mL) | – | 1 µM | –
5 | O=C(C1CCC(O)CC1)N1CC(=O)N2CCc3ccccc3C2C1 (stereo unspecified) | 200 µM (≈ 65.7 µg/mL) | 1.5% | 75 µM | 1.3%
6 | Nc1cccc(C(=O)N2CC(=O)N3CCc4ccccc4C3C2)c1 (stereo unspecified) | 12 µM (≈ 3.86 µg/mL) | 25% | 7 µM | 14.3%
7 | O=C(C1CCCCC1)N1CC(=O)N2CCc3ccc([N+](=O)[O-])cc3C2C1 (stereo unspecified) | >300 µM | <1% | >300 µM | <0.3%
